Reference: ChEMBL document CHEMBL1133072, “Synthesis and biological activity of 1beta-methyl-2-[5'-isoxazoloethenylpyrrolidin-3'-ylthio]carbapenems” (2000)
Values after ≈ are worked out from the molar mass of the structure shown.

How the values were obtained:
Streptococcus pyogenes = test: Minimum inhibitory concentration against Streptococcus pyogenes 308A was determined by agar dilution method using Mueller-Hinton; type: functional
Salmonella typhimurium = test: Minimum inhibitory concentration against Salmonella Typhimurium was determined by agar dilution method using Mueller-Hinton; type: functional, Salmonella enterica subsp. enterica serovar Typhimurium; settings: Salmonella enterica
Staphylococcus aureus [1] = test: Minimum inhibitory concentration against Staphylococcus aureus 503 was determined by agar dilution method using Mueller-Hinton; type: functional
[2] = molecular target: Dipeptidase 1 (Sus scrofa) (UniProt P22412); test: Relative half life of hydrolysis to meropenem by partially purified porcine renal DHP-I was determined
Klebsiella aerogenes = test: Minimum inhibitory concentration against Klebsiella aerogenes 1522E was determined by agar dilution method using Mueller-Hinton; type: functional
Pseudomonas aeruginosa [3] = test: Minimum inhibitory concentration against Pseudomonas aeruginosa 1592E was determined by agar dilution method using Mueller-Hinton; type: functional
Escherichia coli [4] = test: Minimum inhibitory concentration against Escherichia coli 055 was determined by agar dilution method using Mueller-Hinton; type: functional
Enterobacter cloacae = test: Minimum inhibitory concentration against Enterobacter cloacae 1321E was determined by agar dilution method using Mueller-Hinton; type: functional
Pseudomonas aeruginosa [5] = test: Minimum inhibitory concentration against Pseudomonas aeruginosa 9027 was determined by agar dilution method using Mueller-Hinton; type: functional
Staphylococcus aureus [6] = test: Minimum inhibitory concentration against Staphylococcus aureus 285 was determined by agar dilution method using Mueller-Hinton; type: functional
Pseudomonas aeruginosa [7] = test: Minimum inhibitory concentration against Pseudomonas aeruginosa 1771M was determined by agar dilution method using Mueller-Hinton; type: functional
Staphylococcus aureus [8] = test: Minimum inhibitory concentration against Staphylococcus aureus SG 511 was determined by agar dilution method using Mueller-Hinton; type: functional
Escherichia coli [9] = test: Minimum inhibitory concentration against Escherichia coli 1507E was determined by agar dilution method using Mueller-Hinton; type: functional
[10] = molecular target: Dipeptidase 1 (Sus scrofa) (UniProt P22412); test: Stability to porcine renal DHP-I was determined

Sequence of Dipeptidase 1 (Sus scrofa) (P22412 whole entry, looked up): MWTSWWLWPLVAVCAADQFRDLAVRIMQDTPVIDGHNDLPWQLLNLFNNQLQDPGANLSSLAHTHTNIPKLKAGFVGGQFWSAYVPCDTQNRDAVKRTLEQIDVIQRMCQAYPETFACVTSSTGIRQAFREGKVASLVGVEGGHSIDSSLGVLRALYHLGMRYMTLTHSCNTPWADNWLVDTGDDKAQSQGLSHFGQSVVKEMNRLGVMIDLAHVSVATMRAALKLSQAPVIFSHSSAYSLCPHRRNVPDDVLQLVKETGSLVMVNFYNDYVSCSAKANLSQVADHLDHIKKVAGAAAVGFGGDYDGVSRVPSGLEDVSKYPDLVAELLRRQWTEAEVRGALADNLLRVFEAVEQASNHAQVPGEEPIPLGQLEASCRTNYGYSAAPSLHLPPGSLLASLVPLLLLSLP

Row | SMILES | MIC (Streptococcus pyogenes) [µg/mL] | MIC (Salmonella typhimurium) [µg/mL] | MIC (Staphylococcus aureus [1]) [µg/mL] | Relativity [2] | MIC (Klebsiella aerogenes) [µg/mL] | MIC (Pseudomonas aeruginosa [3]) [µg/mL] | MIC (Escherichia coli [4]) [µg/mL] | MIC (Enterobacter cloacae) [µg/mL] | MIC (Pseudomonas aeruginosa [5]) [µg/mL] | MIC (Staphylococcus aureus [6]) [µg/mL] | MIC (Pseudomonas aeruginosa [7]) [µg/mL] | MIC (Staphylococcus aureus [8]) [µg/mL] | MIC (Escherichia coli [9]) [µg/mL] | Activity [10]
1 | C[C@@H](O)[C@H]1C(=O)N2C(C(=O)O)=C(S[C@@H]3CN[C@H](/C=C/c4cc(Cl)no4)C3)[C@H](C)[C@H]12 | 0.004 (≈ 0.00909 µM) | 0.025 (≈ 0.0568 µM) | 0.013 (≈ 0.0296 µM) | 1.33 | 0.025 (≈ 0.0568 µM) | 0.781 (≈ 1.78 µM) | 0.025 (≈ 0.0568 µM) | 0.013 (≈ 0.0296 µM) | 0.781 (≈ 1.78 µM) | 0.025 (≈ 0.0568 µM) | 0.195 (≈ 0.443 µM) | 0.013 (≈ 0.0296 µM) | 0.025 (≈ 0.0568 µM) | –
2 | C[C@@H](O)[C@H]1C(=O)N2C(C(=O)O)=C(S[C@@H]3CN[C@H](/C=C/c4ccno4)C3)[C@H](C)[C@H]12 | 0.004 (≈ 0.00986 µM) | 0.049 (≈ 0.121 µM) | 0.013 (≈ 0.0321 µM) | 1.95 | 0.049 (≈ 0.121 µM) | 0.195 (≈ 0.481 µM) | 0.025 (≈ 0.0617 µM) | 0.025 (≈ 0.0617 µM) | 0.195 (≈ 0.481 µM) | 0.025 (≈ 0.0617 µM) | 0.195 (≈ 0.481 µM) | 0.025 (≈ 0.0617 µM) | 0.025 (≈ 0.0617 µM) | –
3 | C[C@@H](O)[C@H]1C(=O)N2C(C(=O)O)=C(S[C@@H]3CN[C@H](/C=C\c4cnoc4)C3)[C@H](C)[C@H]12 | < 0.002 | 0.391 (≈ 0.964 µM) | 0.013 (≈ 0.0321 µM) | 1.84 | 3.12 (≈ 7.71 µM) | 25 (≈ 61.7 µM) | 0.391 (≈ 0.964 µM) | 1.56 (≈ 3.85 µM) | 25 (≈ 61.7 µM) | 0.025 (≈ 0.0617 µM) | 3.12 (≈ 7.71 µM) | 0.013 (≈ 0.0321 µM) | 1.56 (≈ 3.85 µM) | –
4 | COC(=O)c1cc(/C=C\[C@@H]2C[C@H](SC3=C(C(=O)O)N4C(=O)[C@H]([C@@H](C)O)[C@H]4[C@H]3C)CN2)on1 | 0.007 (≈ 0.0151 µM) | 0.025 (≈ 0.0539 µM) | 0.025 (≈ 0.0539 µM) | 1.35 | 0.049 (≈ 0.106 µM) | 0.195 (≈ 0.421 µM) | 0.025 (≈ 0.0539 µM) | 0.025 (≈ 0.0539 µM) | 0.098 (≈ 0.211 µM) | 0.049 (≈ 0.106 µM) | 0.195 (≈ 0.421 µM) | 0.049 (≈ 0.106 µM) | 0.025 (≈ 0.0539 µM) | –
5 | COc1cc(/C=C/[C@@H]2C[C@H](SC3=C(C(=O)O)N4C(=O)[C@H]([C@@H](C)O)[C@H]4[C@H]3C)CN2)on1 | 0.007 (≈ 0.0161 µM) | 0.195 (≈ 0.448 µM) | 0.049 (≈ 0.113 µM) | 2.14 | 0.391 (≈ 0.898 µM) | 12.5 (≈ 28.7 µM) | 0.098 (≈ 0.225 µM) | 0.195 (≈ 0.448 µM) | 12.5 (≈ 28.7 µM) | 0.025 (≈ 0.0574 µM) | 6.25 (≈ 14.4 µM) | 0.049 (≈ 0.113 µM) | 0.391 (≈ 0.898 µM) | –
6 | C[C@@H](O)[C@H]1C(=O)N2C(C(=O)O)=C(S[C@@H]3CN[C@H](/C=C\c4cc(CO)no4)C3)[C@H](C)[C@H]12 | 0.013 (≈ 0.0299 µM) | 0.098 (≈ 0.225 µM) | 0.049 (≈ 0.113 µM) | 1.59 | 0.098 (≈ 0.225 µM) | 3.12 (≈ 7.18 µM) | 0.049 (≈ 0.113 µM) | 0.049 (≈ 0.113 µM) | 3.12 (≈ 7.18 µM) | 0.049 (≈ 0.113 µM) | 1.56 (≈ 3.59 µM) | 0.049 (≈ 0.113 µM) | 0.049 (≈ 0.113 µM) | –
7 | C[C@@H](O)[C@H]1C(=O)N2C(C(=O)O)=C(S[C@@H]3CN[C@H](/C=C/c4cc(CO)no4)C3)[C@H](C)[C@H]12 | 0.007 (≈ 0.0161 µM) | 0.049 (≈ 0.113 µM) | 0.025 (≈ 0.0574 µM) | 2.01 | 0.049 (≈ 0.113 µM) | 0.195 (≈ 0.448 µM) | 0.025 (≈ 0.0574 µM) | 0.025 (≈ 0.0574 µM) | 0.195 (≈ 0.448 µM) | 0.025 (≈ 0.0574 µM) | 0.098 (≈ 0.225 µM) | 0.025 (≈ 0.0574 µM) | 0.025 (≈ 0.0574 µM) | –
8 | C[C@@H](O)[C@H]1C(=O)N2C(C(=O)O)=C(SCCNC=N)C[C@H]12 [IMIPENEM ANHYDROUS] | 0.007 (≈ 0.0234 µM) | 0.781 (≈ 2.61 µM) | 0.013 (≈ 0.0434 µM) | 0.19 | 0.391 (≈ 1.31 µM) | 1.56 (≈ 5.22 µM) | 0.098 (≈ 0.327 µM) | 0.195 (≈ 0.651 µM) | 0.781 (≈ 2.61 µM) | 0.025 (≈ 0.0835 µM) | 0.195 (≈ 0.651 µM) | 0.025 (≈ 0.0835 µM) | 0.195 (≈ 0.651 µM) | –
9 | C[C@@H](O)[C@H]1C(=O)N2C(C(=O)O)=C(S[C@@H]3CN[C@H](/C=C/c4ccon4)C3)[C@H](C)[C@H]12 | 0.025 (≈ 0.0617 µM) | 0.098 (≈ 0.242 µM) | 0.098 (≈ 0.242 µM) | 2.33 | 0.098 (≈ 0.242 µM) | 3.12 (≈ 7.71 µM) | 0.098 (≈ 0.242 µM) | 0.049 (≈ 0.121 µM) | 3.12 (≈ 7.71 µM) | 0.195 (≈ 0.481 µM) | 0.781 (≈ 1.93 µM) | 0.195 (≈ 0.481 µM) | 0.098 (≈ 0.242 µM) | –
10 | COC(=O)c1cc(/C=C/[C@@H]2C[C@H](SC3=C(C(=O)O)N4C(=O)[C@H]([C@@H](C)O)[C@H]4[C@H]3C)CN2)on1 | 0.007 (≈ 0.0151 µM) | 0.025 (≈ 0.0539 µM) | 0.025 (≈ 0.0539 µM) | 2.68 | 0.049 (≈ 0.106 µM) | 0.195 (≈ 0.421 µM) | 0.025 (≈ 0.0539 µM) | 0.025 (≈ 0.0539 µM) | 0.098 (≈ 0.211 µM) | 0.049 (≈ 0.106 µM) | 0.098 (≈ 0.211 µM) | 0.049 (≈ 0.106 µM) | 0.025 (≈ 0.0539 µM) | –
11 | C[C@@H](O)[C@H]1C(=O)N2C(C(=O)O)=C(S[C@@H]3CN[C@H](C(=O)N(C)C)C3)[C@H](C)[C@H]12 [MEROPENEM] | 0.013 (≈ 0.0339 µM) | 0.049 (≈ 0.128 µM) | 0.098 (≈ 0.256 µM) | – | 0.049 (≈ 0.128 µM) | 0.195 (≈ 0.509 µM) | 0.025 (≈ 0.0652 µM) | 0.025 (≈ 0.0652 µM) | 0.195 (≈ 0.509 µM) | 0.195 (≈ 0.509 µM) | 0.049 (≈ 0.128 µM) | 0.195 (≈ 0.509 µM) | 0.025 (≈ 0.0652 µM) | 1
